Data: ChEMBL document CHEMBL3885881, “DrugMatrix”

Species: Rattus norvegicus
Assay: DrugMatrix - Regimen: Daily Repeat
Format: toxicity, organism-based, Sprague-Dawley
Parameters: regimen Daily Repeat, gender Male, age 6-8 weeks
Settings: in vivo, po, route oral GAVAGE, […]; for ABSOLUTE BASOPHIL / ABSOLUTE EOSINOPHIL / ABSOLUTE LYMPHOCYTE / ABSOLUTE MONOCYTE / ABSOLUTE SEGMENTED NEUTROPHIL / BASOPHIL / EOSINOPHIL / ERYTHROCYTE COUNT / HEMATOCRIT / HEMOGLOBIN / LEUKOCYTE COUNT / LYMPHOCYTE / MEAN CORPUSCULAR HEMOGLOBIN / MEAN CORPUSCULAR HEMOGLOBIN CONCENTRATION / MEAN CORPUSCULAR VOLUME / MONOCYTE / NEUTROPHIL / NUCLEATED RED BLOOD CELLS / PLATELET COUNT: tissue Blood; for ALANINE AMINOTRANSFERASE / ALBUMIN / ALKALINE PHOSPHATASE / ASPARTATE AMINOTRANSFERASE / BLOOD UREA NITROGEN / CARBON DIOXIDE / CHLORIDE / CHOLESTEROL / CREATINE PHOSPHOKINASE / CREATININE / GLUCOSE / LACTATE DEHYDROGENASE / LIPASE / PHOSPHORUS / POTASSIUM / SODIUM / TOTAL BILIRUBIN / TOTAL PROTEIN / URIC ACID: tissue Plasma
[1] = 280 mg/kg, 120 h, dose level High, time 5 day
[2] = 72 h, dose 2.8 mg/Kg, dose level Low, time 3 day
[3] = 120 h, dose 2.8 mg/Kg, dose level Low, time 5 day

In the case of `CC/C(=C(/CC)c1ccc(O)cc1)c1ccc(O)cc1` [DIETHYLSTILBESTROL], the “ABSOLUTE BASOPHIL” value [1] was 0 CELLS/uL, the “ABSOLUTE EOSINOPHIL” value [1] was 0 CELLS/uL and the “ABSOLUTE LYMPHOCYTE” value [1] was 5802 CELLS/uL. For the same compound, the “ABSOLUTE MONOCYTE” value [1] was 16.67 CELLS/uL, the “ABSOLUTE SEGMENTED NEUTROPHIL” value [1] was 514.67 CELLS/uL and the BASOPHIL [1] was 0%. For the same compound, the EOSINOPHIL [1] was 0%, the “ERYTHROCYTE COUNT” value [1] was 5.3 x10E6/uL and the HEMATOCRIT [1] was 33.4%. For the same compound, the HEMOGLOBIN [1] was 12.67 G/DL, the “LEUKOCYTE COUNT” value [1] was 6.33 x10E3/uL and the LYMPHOCYTE [1] was 91.33%. For the same compound, the “MEAN CORPUSCULAR HEMOGLOBIN” value [1] was 23.9 pg, the “MEAN CORPUSCULAR HEMOGLOBIN CONCENTRATION” value [1] was 37.97 G/DL and the “MEAN CORPUSCULAR VOLUME” value [1] was 62.97 fL. For the same compound, the MONOCYTE [1] was 0.33%, the NEUTROPHIL [1] was 8.33% and the “NUCLEATED RED BLOOD CELLS” value [1] was 0.33 /100WBC. For the same compound, the “PLATELET COUNT” value [1] was 1806.33 x10E3/uL, the “ALANINE AMINOTRANSFERASE” value [1] was 47.33 u/L and the ALBUMIN [1] was 3.6 G/DL. The “ALKALINE PHOSPHATASE” value [1] was 594.67 u/L, the “ASPARTATE AMINOTRANSFERASE” value [1] was 59 u/L and the “BLOOD UREA NITROGEN” value [1] was 14 mg/dL. For the same compound, the “CARBON DIOXIDE” value [1] was 28.33 mmol/L, the CHLORIDE [1] was 100 MEQ/L and the CHOLESTEROL [1] was 35 mg/dL. The “CREATINE PHOSPHOKINASE” value [1] was 88.33 u/L, the CREATININE [1] was 0.3 mg/dL and the GLUCOSE [1] was 144.67 mg/dL. For the same compound, the “LACTATE DEHYDROGENASE” value [1] was 47.33 u/L, the LIPASE [1] was 9 u/L and the PHOSPHORUS [1] was 9.33 mg/dL. The POTASSIUM [1] was 5.01 MEQ/L, the SODIUM [1] was 147.6 MEQ/L and the “TOTAL BILIRUBIN” value [1] was 0.6 mg/dL. The “TOTAL PROTEIN” value [1] was 6.27 G/DL, the “URIC ACID” value [1] was 0.3 mg/dL and the “ABSOLUTE BASOPHIL” value [2] was 0 CELLS/uL. The “ABSOLUTE EOSINOPHIL” value [2] was 0 CELLS/uL, the “ABSOLUTE LYMPHOCYTE” value [2] was 8607.33 CELLS/uL and the “ABSOLUTE MONOCYTE” value [2] was 102 CELLS/uL. The “ABSOLUTE SEGMENTED NEUTROPHIL” value [2] was 1057.33 CELLS/uL, the BASOPHIL [2] was 0% and the EOSINOPHIL [2] was 0%. For the same compound, the “ERYTHROCYTE COUNT” value [2] was 5.52 x10E6/uL, the HEMATOCRIT [2] was 33.53% and the HEMOGLOBIN [2] was 13.07 G/DL. For the same compound, the “LEUKOCYTE COUNT” value [2] was 9.77 x10E3/uL, the LYMPHOCYTE [2] was 88% and the “MEAN CORPUSCULAR HEMOGLOBIN” value [2] was 23.73 pg. The “MEAN CORPUSCULAR HEMOGLOBIN CONCENTRATION” value [2] was 39.03 G/DL, the “MEAN CORPUSCULAR VOLUME” value [2] was 60.87 fL and the MONOCYTE [2] was 1%. For the same compound, the NEUTROPHIL [2] was 11%, the “NUCLEATED RED BLOOD CELLS” value [2] was 0 /100WBC and the “PLATELET COUNT” value [2] was 1167 x10E3/uL. The “ALANINE AMINOTRANSFERASE” value [2] was 57.33 u/L, the ALBUMIN [2] was 3.83 G/DL and the “ALKALINE PHOSPHATASE” value [2] was 627.67 u/L. For the same compound, the “ASPARTATE AMINOTRANSFERASE” value [2] was 71 u/L, the “BLOOD UREA NITROGEN” value [2] was 7.67 mg/dL and the “CARBON DIOXIDE” value [2] was 26.67 mmol/L. For the same compound, the CHLORIDE [2] was 105.33 MEQ/L, the CHOLESTEROL [2] was 24.33 mg/dL and the “CREATINE PHOSPHOKINASE” value [2] was 222.33 u/L. For the same compound, the CREATININE [2] was 0.12 mg/dL, the GLUCOSE [2] was 155.33 mg/dL and the “LACTATE DEHYDROGENASE” value [2] was 64 u/L. It also gave an LIPASE [2] of 8 u/L, a PHOSPHORUS [2] of 9.27 mg/dL and a POTASSIUM [2] of 5.23 MEQ/L. For the same compound, the SODIUM [2] was 147.13 MEQ/L, the “TOTAL BILIRUBIN” value [2] was 0.13 mg/dL and the “TOTAL PROTEIN” value [2] was 5.6 G/DL. The “URIC ACID” value [2] was 0.6 mg/dL, the “ABSOLUTE BASOPHIL” value [3] was 0 CELLS/uL and the “ABSOLUTE EOSINOPHIL” value [3] was 46 CELLS/uL. The “ABSOLUTE LYMPHOCYTE” value [3] was 6817.67 CELLS/uL, the “ABSOLUTE MONOCYTE” value [3] was 68 CELLS/uL and the “ABSOLUTE SEGMENTED NEUTROPHIL” value [3] was 335 CELLS/uL. For the same compound, the BASOPHIL [3] was 0%, the EOSINOPHIL [3] was 0.67% and the “ERYTHROCYTE COUNT” value [3] was 5.68 x10E6/uL. The HEMATOCRIT [3] was 36.33%, the HEMOGLOBIN [3] was 13.8 G/DL and the “LEUKOCYTE COUNT” value [3] was 7.27 x10E3/uL. The LYMPHOCYTE [3] was 93.33%, the “MEAN CORPUSCULAR HEMOGLOBIN” value [3] was 24.3 pg and the “MEAN CORPUSCULAR HEMOGLOBIN CONCENTRATION” value [3] was 38.03 G/DL. The “MEAN CORPUSCULAR VOLUME” value [3] was 64 fL, the MONOCYTE [3] was 0.67% and the NEUTROPHIL [3] was 5.33%. For the same compound, the “NUCLEATED RED BLOOD CELLS” value [3] was 0.33 /100WBC, the “PLATELET COUNT” value [3] was 1219.67 x10E3/uL and the “ALANINE AMINOTRANSFERASE” value [3] was 60.67 u/L. The ALBUMIN [3] was 3.7 G/DL, the “ALKALINE PHOSPHATASE” value [3] was 729.67 u/L and the “ASPARTATE AMINOTRANSFERASE” value [3] was 65.67 u/L. For the same compound, the “BLOOD UREA NITROGEN” value [3] was 11.33 mg/dL, the “CARBON DIOXIDE” value [3] was 26.33 mmol/L and the CHLORIDE [3] was 103.33 MEQ/L. The CHOLESTEROL [3] was 19.33 mg/dL, the “CREATINE PHOSPHOKINASE” value [3] was 162.33 u/L and the CREATININE [3] was 0.19 mg/dL. For the same compound, the GLUCOSE [3] was 151.33 mg/dL, the “LACTATE DEHYDROGENASE” value [3] was 62 u/L and the LIPASE [3] was 9.33 u/L. The PHOSPHORUS [3] was 8.9 mg/dL, the POTASSIUM [3] was 4.57 MEQ/L and the SODIUM [3] was 146.9 MEQ/L. For the same compound, the “TOTAL BILIRUBIN” value [3] was 0.13 mg/dL, the “TOTAL PROTEIN” value [3] was 6.03 G/DL and the “URIC ACID” value [3] was 0.5 mg/dL.
